The source of these data is patent publication US8044098B2, “Use of hydroxybenzoic acids and their esters and analogues for preventing or treating virus infection” (Shenghua Guangzhou Pharmaceutical Science & Technology Co., …, priority 2005, dated 2011).

One experiment has as its system condyloma acuminata. In words: Clinical use in treating condyloma acuminata. It is filed as in vivo, human. The text has this: Soft hyperplasia with nipple or cauliflower shaped or other shaped warts were found around the skin of the cunnus or anus. The result from 5% acetate acid white test was positive.
Patients selected for the clinical observation must meet the above standards. Plus the diameter of their skin lesions should equal to or be less than 1 cm. […] Patients who had vaginal yeast, trichomonas, bacteria infection or other complications, chronic diseases, serious liver or kidney diseases or women in pregnancy or lactation were not selected. Treatments to women would not be conducted in their menstrual periods.
50 qualified patients were selected and randomly divided into five groups to be tested with p-hydroxybenzoic acid, gallic acid, ethyl p-hydroxybenzoate, propyl gallate and recombinant human interferon α-2β gel, respectively. The samples of p-hydroxybenzoic acid, gallic acid, ethyl p-hydroxybenzoate and propyl gallate were prepared as described in Example 1. The patients were treated with the test sample to the affected areas three times a day, in the morning, at noon and night. The samples were applied to cover the warts and the patients were required to leave the treated areas exposed and not to move for 20 minutes.
Observation time: 8 days. Patients not cured after 8 days would continue to use the test samples for another 12 weeks, and their prognosis was followed during the 12-week period.
Observed items: the location, shape, size and number of warts were carefully observed and recorded before the treatment.
“Recovered”: all skin lesions had disappeared;
“Obvious Effect”: more than 70% of the skin lesions had disappeared;
“Improved”: more than 30% of the skin lesions had disappeared;
“Not Effective”: less than 30% of the skin lesions had disappeared or the original skin lesions didn't change or even enlarged.

In experiment [1] the test system is secretion of HBeAg by 2.2.15 cells. The experiment can be described thus: Inhibition of secretion of HBeAg by Hepatitis B 2.2.15 cell line. The conditions noted are these: 1 μmol/ml. The class given is cell-based, HBV. The text has this:
Hepatitis B 2.2.15 cell line was transfected by HBV DNA (purchased from Institute of Biochemistry and Cell Biology of Shanghai Institute for Biological Sciences or the National Center for Drug Screening) and used as the cell model for screening anti-HBV drug compounds (See Chinese Journal Of Integrated Traditional and Western Medicine on Liver Diseases, 2004, 14(3): 158). The cell culture medium DMEM (GIBCO Company), bovine serum (Hangzhou Siji Qing Biochemical Manufacturer), G418 (GIBCO Company), 3-(4,5-dimethylthiazol-2-yl)-2,5-diphenyltetrazoliumbromide (Sigma), HBsAg and HBeAg diagnostic kit (Shanghai Kehua Bio-engineering Co., Ltd).
The test compounds listed in Table 3 below were dissolved in a mixture containing 20 ml 1,2-propylene glycol and 15 ml Tween-80 and diluted with sterile saline water to 2 μmol/ml of the test compound. Then it was mixed with the cell culture medium at equal volume to obtain a solution containing 1 μmol/ml of the tested compound. Cells at the concentration of 1×10^5 cells per milliliter were inoculated to a 24-well plate at 1 ml/well. Supernatant from the cell culture mixture was collected three days later for testing.

Regarding `CCCOC(=O)c1cc(O)c(O)c(O)c1` [Propyl gallate], the “treatment effect compared to recombinant human interferon α-2β gel” value with condyloma acuminata (condyloma acuminata patients, 10% micro emulsion) was “more apparent treatment effect”. Moreover, in the experiment on condyloma acuminata (number of patients (50 patients in five groups), 10% micro emulsion on affected areas three times a day, all skin lesions disappeared), the “Recovered, 1-4 days” value stood at 7. Also, the “Recovered, 5-8 days” value in the experiment on condyloma acuminata (number of patients, 10% micro emulsion three times a day, all skin lesions disappeared) is recorded as 1. For the same compound, in the experiment with condyloma acuminata (number of patients, more than 70% of the skin lesions disappeared), the “Obvious Effect, 1-4 days” value was 2. Besides, in experiment [1], the “effect on the secretion of HBeAg by the 2.2.15 cells (in words)” value is “had inhibition effect”; the “inhibition of HBeAg secretion compared with gallic acid and 3,4-dihydroxybenzoic acid” value is listed as “more effective”. The “HBeAg Inhibition Rate” value in experiment [1] (2.2.15 cells, supernatant collected three days later) is 12.04%.
